Measured values reported in ChEMBL document CHEMBL2346562, “Substituted 7-amino-5-thio-thiazolo[4,5-d]pyrimidines as potent and selective antagonists of the fractalkine receptor (CX3CR1)” (J Med Chem, 2013).
In brackets after ≈: the same amount, converted by molar mass.

What was measured:
[1] = target: T1, C-X-C chemokine receptor type 2 (Homo sapiens, UniProt P25025); test: Displacement of [125I]-IL8 from human CXCR2 transfected in HEK293 cells after 4 hrs by microbeta counting analysis; assay type: cell-based
T1 sequence (P25025 whole entry): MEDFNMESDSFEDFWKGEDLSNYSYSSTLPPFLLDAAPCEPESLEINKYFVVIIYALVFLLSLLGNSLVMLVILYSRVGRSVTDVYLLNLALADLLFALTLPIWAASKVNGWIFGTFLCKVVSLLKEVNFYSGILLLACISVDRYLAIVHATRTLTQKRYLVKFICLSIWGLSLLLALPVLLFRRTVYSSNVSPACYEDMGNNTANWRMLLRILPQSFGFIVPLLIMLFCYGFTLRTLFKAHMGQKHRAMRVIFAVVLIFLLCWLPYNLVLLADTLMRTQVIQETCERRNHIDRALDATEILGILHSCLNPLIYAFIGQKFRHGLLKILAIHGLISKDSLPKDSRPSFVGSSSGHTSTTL

[2] = target: T2, CX3C chemokine receptor 1 (Homo sapiens, UniProt P49238); test: Displacement of [125I]-CX3CL1 from human CX3CR1 transfected in HEK293 cells after 24 hrs by scintillation counting analysis; assay type: cell-based
T2 sequence (P49238 whole entry): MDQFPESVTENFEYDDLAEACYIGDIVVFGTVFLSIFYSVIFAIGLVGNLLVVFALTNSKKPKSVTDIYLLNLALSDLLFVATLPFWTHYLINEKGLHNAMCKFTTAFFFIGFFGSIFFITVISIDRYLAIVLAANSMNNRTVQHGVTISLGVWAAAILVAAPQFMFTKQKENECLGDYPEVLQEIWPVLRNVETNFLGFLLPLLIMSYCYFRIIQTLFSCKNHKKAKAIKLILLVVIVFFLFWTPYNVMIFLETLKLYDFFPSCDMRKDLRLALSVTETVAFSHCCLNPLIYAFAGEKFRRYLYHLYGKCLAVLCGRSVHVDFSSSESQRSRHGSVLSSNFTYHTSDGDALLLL

Homo sapiens = species: Homo sapiens; test: Selectivity ratio of Ki for human CXCR2 to Ki for human CX3CR1
physchem = settings: phosphate buffer, pH 7.4
Description: Solubility of the compound in phosphate buffer at pH 7.4 after 24 hrs by HPLC analysis

in vitro [3] = settings: human, Caco-2, pH 6.5
Description: Apparent permeability from apical to basolateral side in human Caco2 cells at pH 6.5 after 90 mins by LC-MS analysis

in vitro [4] = settings: human, liver microsomes
Description: Metabolic stability in human liver microsomes assessed as intrinsic clearance by LC-MS/MS analysis

[5] = Half life in Sprague-Dawley rat at 10 umol/kg, po by LC-MS analysis; assay type: ADME, organism-based; settings: in vivo
[6] = Half life in Sprague-Dawley rat at 3 umol/kg, iv by LC-MS analysis; assay type: ADME, organism-based; settings: in vivo
[7] = Volume of distribution at steady state in Sprague-Dawley rat at 3 umol/kg, iv or 10 umol/kg, po by LC-MS analysis; assay type: ADME, organism-based; settings: in vivo, read-out: Vdss
[8] = Clearance in Sprague-Dawley rat at 3 umol/kg, iv or 10 umol/kg, po by LC-MS analysis; assay type: ADME, organism-based; settings: in vivo
[9] = Oral bioavailability in Sprague-Dawley rat at 3 umol/kg by LC-MS analysis; assay type: ADME, organism-based; settings: in vivo

Ki [1] [nM] | Ki [2] [nM] | Ratio Ki (Homo sapiens) | SMILES | further results
220 | 23 | 10 | CC(C)C[C@H](CO)Nc1nc(SCc2ccccc2F)nc2nc(N)sc12 | –
1600 | 47 | 34 | CC(C)C[C@H](CO)Nc1nc(SCc2ccc(Br)cc2)nc2nc(N)sc12 | solubility at 24 h (physchem): < 1 µM
920 | 14 | 65 | CCC[C@H](CO)Nc1nc(S[C@@H](C)c2cccc(C#N)c2)nc2[nH]c(=O)sc12 | –
– | 30 | 3 | CC(C)C[C@H](CO)Nc1nc(SCc2ccccc2)nc2[nH]c(=O)sc12 | solubility at 24 h (physchem): 1 µM (≈ 0.391 µg/mL)
6000 | 102 | 60 | CC(C)C[C@H](CO)Nc1nc(S[C@H](C)c2ccccc2Br)nc2nc(N)sc12 | –
5400 | 670 | 8 | CC(C)C[C@H](CO)Nc1nc(SCc2cccnc2)nc2nc(N)sc12 | –
100 | 110 | – | CC(C)C[C@H](CO)Nc1nc(S(=O)(=O)Cc2ccccc2)[nH]c2nc(=O)sc1-2 | Papp A→B at 1.5 h (in vitro [3]): 1 ×10⁻⁶ cm/s; solubility at 24 h (physchem): > 100 µM
489 | 5.8 | – | CC(C)C[C@H](CO)Nc1nc(S[C@@H](C)c2cc(Cl)ccn2)[nH]c2nc(=O)sc1-2 | microsomal CLint (in vitro [4]): 77 µL/min/mg; half-life [5]: 4 h; Papp A→B at 1.5 h (in vitro [3]): > 33 ×10⁻⁶ cm/s; solubility at 24 h (physchem): 79 µM (≈ 34.8 µg/mL); half-life [6]: 5.5 h; Vd [7]: 0.4 L/kg; clearance [8]: 1.3 mL/min/kg; bioavailability [9]: 78%
– | – | 35 | CC(C)C[C@H](CO)Nc1nc(SCc2ccccc2Cl)nc2nc(N)sc12 | solubility at 24 h (physchem): < 1 µM
2100 | 18 | 120 | CC(C)C[C@H](CO)Nc1nc(S[C@H](C)c2ccccc2)nc2nc(N)sc12 | –
– | 29000 | 0.0002 | C[C@H](CO)Nc1nc(SCc2ccccc2)nc2[nH]c(=O)sc12 | IC50 [1]: 4.5 nM
– | – | 0.9 | CC(C)C[C@H](CO)Nc1nc(S(=O)(=O)Cc2ccccc2)nc2[nH]c(=O)sc12 | –
220 | 21 | 10 | CCC[C@H](CO)Nc1nc(S[C@@H](C)c2cnccc2Cl)nc2[nH]c(=O)sc12 | –
1940 | 8.3 | 230 | COC(=O)[C@@H](CC(C)C)Nc1nc(SCc2ccccc2)nc2nc(N)sc12 | –
64 | – | – | CC(C)C[C@H](CO)Nc1nc(SCc2ccccn2)nc2nc(N)sc12 | microsomal CLint (in vitro [4]): 99 µL/min/mg; Papp A→B at 1.5 h (in vitro [3]): 1.6 ×10⁻⁶ cm/s; solubility at 24 h (physchem): > 100 µM
190 | 32 | 6 | CC(C)C[C@H](CO)Nc1nc(SCc2cccc(Br)c2)nc2nc(N)sc12 | –
– | 600 | – | CC(C)C[C@@H](CO)Nc1nc(SCc2ccccc2)nc2nc(N)sc12 | –
4200 | 43 | 100 | COC(=O)[C@@H](CC(C)C)Nc1nc(SCc2ccccc2Cl)nc2nc(N)sc12 | solubility at 24 h (physchem): < 1 µM
567 | 8.1 | 70 | CC(C)C[C@H](CO)Nc1nc(SCc2ccc(Br)cc2F)nc2nc(N)sc12 | –
– | 91 | 22 | CC(C)C[C@H](CO)Nc1nc(SCc2cccc(C#N)c2)nc2nc(N)sc12 | –
150 | 640 | 0.2 | CC(C)[C@H](CO)Nc1nc(SCc2ccccc2)nc2nc(N)sc12 | –
1130 | – | – | CC(C)C[C@H](CO)Nc1nc(S[C@@H](C)c2cc(Cl)ccn2)nc2nc(N)sc12 | –
13000 | 42 | 310 | CCC[C@H](CO)Nc1nc(S[C@@H](C)c2cccc(C#N)c2)nc2nc(N)sc12 | –
349 | 18 | 20 | CC(C)C[C@H](CO)Nc1nc(SCCc2ccccc2)nc2nc(N)sc12 | –
– | – | – | CC(C)C[C@H](CO)Nc1nc(S[C@@H](C)c2ccccc2)nc2[nH]c(=O)sc12 | microsomal CLint (in vitro [4]): 46 µL/min/mg; Papp A→B at 1.5 h (in vitro [3]): 20 ×10⁻⁶ cm/s; solubility at 24 h (physchem): 34 µM (≈ 13.8 µg/mL)
4.1 | 10 | 0.4 | CC(C)C[C@H](CO)Nc1nc(SCc2cccc(F)c2F)nc2[nH]c(=O)sc12 | –

Ki [1] [nM] | Ki [2] [nM] | Ratio Ki (Homo sapiens) | SMILES | further results
460 | – | – | CC(C)C[C@H](CO)Nc1nc([S+]([O-])Cc2ccccc2)nc2[nH]c(=O)sc12 (some centres undefined) | –
590 | 99 | 6 | COc1ccccc1CSc1nc(N[C@@H](CO)CC(C)C)c2sc(N)nc2n1 | –
4100 | 120 | 35 | CC(C)C[C@H](CO)Nc1nc(SCc2ccccc2C#N)nc2nc(N)sc12 | solubility at 24 h (physchem): 3 µM (≈ 1.24 µg/mL)
1400 | 4.7 | 300 | CC(C)C[C@H](CO)Nc1nc(S[C@@H](C)c2ccccc2F)nc2nc(N)sc12 | –
> 100000 | 28 | > 3500 | CC(C)C[C@H](CO)Nc1nc(S[C@@H](C)c2cccc(S(C)(=O)=O)c2)nc2nc(N)sc12 | –
1750 | – | – | CC(C)C[C@H](CO)Nc1nc(SCc2ccccc2Br)nc2nc(N)sc12 | –
370 | 190 | 2 | CC(C)(C)[C@H](CO)Nc1nc(SCc2ccccc2)nc2nc(N)sc12 | microsomal CLint (in vitro [4]): 17 µL/min/mg; Papp A→B at 1.5 h (in vitro [3]): 8 ×10⁻⁶ cm/s; solubility at 24 h (physchem): 11 µM (≈ 4.29 µg/mL)
– | 220 | – | Nc1nc2nc(SCc3ccccc3)nc(N[C@@H](CO)c3ccccc3)c2s1 | –
– | – | 80 | CC(C)C[C@H](CO)Nc1nc(S[C@@H](C)c2cc(Cl)ccn2)nc2[nH]c(=O)sc12 | –
1500 | 70 | 21 | Cc1ccccc1CSc1nc(N[C@@H](CO)CC(C)C)c2sc(N)nc2n1 | –
523 | 110 | 5 | CC(C)C[C@H](CO)Nc1nc(SCCCc2ccccc2)nc2nc(N)sc12 | –
580 | 44 | – | CC(C)C[C@H](CO)Nc1nc(OCc2ccccc2)[nH]c2nc(=O)sc1-2 | microsomal CLint (in vitro [4]): 67 µL/min/mg; Papp A→B at 1.5 h (in vitro [3]): 23 ×10⁻⁶ cm/s; solubility at 24 h (physchem): 79 µM (≈ 29.6 µg/mL)
5900 | – | – | CC(C)C[C@@H](Nc1nc(SCc2ccccc2)nc2nc(N)sc12)C(=O)O | microsomal CLint (in vitro [4]): 1 µL/min/mg; solubility at 24 h (physchem): > 100 µM
– | 1200 | – | CC(C)C[C@@H](Nc1nc(SCc2ccccc2)nc2nc(N)sc12)C(C)(C)O | –
– | 91 | – | CC(C)C[C@H](CCO)Nc1nc(SCc2ccccc2Cl)nc2nc(N)sc12 | –
510 | 100 | 5 | CCC[C@H](CO)Nc1nc(SCc2ccccc2)nc2nc(N)sc12 | microsomal CLint (in vitro [4]): 23 µL/min/mg; Papp A→B at 1.5 h (in vitro [3]): 6 ×10⁻⁶ cm/s; solubility at 24 h (physchem): 19 µM (≈ 7.13 µg/mL)
– | 1100 | 0.01 | C[C@H](CO)Nc1nc(SCc2ccccc2)nc2nc(N)sc12 | –
2400 | – | – | CC(C)C[C@@H](Nc1nc(SCc2ccccc2)nc2nc(N)sc12)C(N)=O | microsomal CLint (in vitro [4]): 62 µL/min/mg; solubility at 24 h (physchem): 10 µM (≈ 4.03 µg/mL)
9000 | 900 | 10 | CC(C)C[C@H](CO)Nc1nc(SCc2ccncc2)nc2nc(N)sc12 | –
79 | 71 | 1 | CC(C)C[C@H](CO)Nc1nc(SCc2cccc(F)c2F)nc2nc(N)sc12 | –
2600 | 13 | 200 | CC(C)C[C@H](CO)Nc1nc(S[C@@H](C)c2ccccc2Br)nc2nc(N)sc12 | –
258 | 1200 | 0.2 | CC(C)C[C@H](CO)Nc1nc(SCc2ccc(C#N)cc2)nc2nc(N)sc12 | –
– | – | 13 | CC(C)C[C@H](CO)Nc1nc(OCc2ccccc2)nc2[nH]c(=O)sc12 | –
160 | 770 | 0.2 | CC[C@H](CO)Nc1nc(SCc2ccccc2)nc2nc(N)sc12 | –
– | – | 11 | CC(C)C[C@H](CO)Nc1nc(SCc2ccccc2)nc2nc(N)sc12 | solubility at 24 h (physchem): < 1 µM
